# Results reported in patent US20260167622A1, “PAN-KRAS DEGRADING AGENT, AND PREPARATION METHOD THEREFOR AND USE THEREOF” (LEADINGTAC PHARMACEUTICAL (SHAOXING) CO., LTD., priority 2022, published 2026).
# How the values were obtained:
# Type in all cases: cell-based
# [1] = tested on: KRAS G13D mutant human colorectal cancer epithelial cell DLD-1; assay: 3D cell proliferation inhibition assay, DLD-1; conditions: DLD-1, 168 h, 3D culture, 7 days, CTG
# Outline: (§1)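 Cells were seeded in low-adsorption 96-well plates at 5×10^2 cells/well (MKN1 at 1×10^3) with compounds at final 10000-0.026 nM, 0.2% DMSO, and grown 7 days at 37° C. CTG luminescence gave inhibition relative to DMSO and medium-only controls, and IC50 came from a log-concentration curve fit.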
# [2] = molecular target: T1, KRAS WT (expanded) protein in MKN1 cells (Homo sapiens, UniProt P01116); assay: KRAS degradation assay (Western Blot) in MKN1 cells; conditions: for DC50: 24 h; for Dmax: MKN-1, 24 h
# T1 construct: endogenous in cells; host or cells: MKN1 (MKN-1)
# T1 sequence (P01116 1-188 isoform P01116-2): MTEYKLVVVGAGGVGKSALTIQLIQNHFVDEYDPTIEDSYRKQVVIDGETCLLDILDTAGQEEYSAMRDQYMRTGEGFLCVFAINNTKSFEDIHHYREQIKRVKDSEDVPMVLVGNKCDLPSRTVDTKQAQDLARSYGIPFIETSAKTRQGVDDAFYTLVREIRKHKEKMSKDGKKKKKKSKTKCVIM
# Excerpt: (§2) Test Example 5: KRAS G12C, KRAS G12D, KRAS G12V, KRAS G13D, and KRAS WT (Expanded) Degradation Assays
# (§3) The degradation effect of the compounds on KRAS was investigated on KRAS G12C mutant human non-small cell lung cancer cell NCI-H358, KRAS G12D mutant human metastatic pancreatic cancer cell AsPc-1, KRAS G12D mutant human lung cancer cell A427, KRAS G12V mutant human colorectal cancer cell SW620, KRAS G12V mutant human lung cancer cell SW900, KRAS G13D mutant human colorectal cancer epithelial cell DLD-1, and KRAS WT human gastric cancer cell MKN-1. The specific procedures were as follows: 0.95 mL of cells were seeded into each well of a 24-well cell culture plate to achieve a cell density of 5×10^5 cells/well; and the cell plate was incubated in an incubator at 37° C. with 5% CO2 overnight. Then 50 μL of the compound solution after dilution was added to each of the wells with the corresponding cells, so that the final concentration of the compound was in a range of 0.03-3000 nM. The final concentration of DMSO was 0.25%. After the compounds were added, the cell plate was incubated in an incubator at 37° C. with 5% CO2 for 24 h. The culture medium in the 24-well cell culture plate was then removed, and the plate was washed twice with 1×PBS (KeyGEN). 120 μL of RIPA (strong) lysis buffer (Beyotime) (supplemented with 1 mM phenylmethylsulfonyl fluoride, a protease inhibitor mixture (Beyotime), and a protease phosphatase inhibitor mixture (Beyotime)) was added to lyse adherent SW900 cells at the bottom of the cell culture plate. After the plate was left to stand on ice for 30 min, the protein lysate in each well was transferred to a 1.5 mL centrifuge tube and centrifuged at 15000 g for 20 min at 4° C. The cell lysate supernatants after centrifugation were cryopreserved in a refrigerator at −80° C. for later use.
# (§4) After the samples of the cell lysate supernatants that had been prepared were thawed from the refrigerator at −80° C., the total protein concentrations of the cell lysates were determined using a BCA protein quantification kit (Tiangen). The total protein concentrations of the samples were then adjusted to 0.5 μg/μL with PBS and 5×SDS-PAGE protein loading buffer (Beyotime), and the samples were incubated in a water bath at 100° C. for 15 min. The samples were then incubated in an ice bath for 5 min and centrifuged at 14000 g for 1 min at 4° C., and the supernatants were mixed well as loading samples for the Western Blot assay. The samples were loaded into wells of a 10% precast gel (KeyGEN) with a loading volume of 10 μL (total protein: 5 μg), a sufficient Tris-MOPS-SDS running buffer (Adamas) was added, and then electrophoresis was performed at a constant voltage of 120 V for 55 min. After the electrophoresis, the proteins on the gel were transferred to PVDF membranes at a constant current of 250 mA for 55 min. After the membrane transfer, the PVDF membranes were incubated in 1× Quick Block blocking buffer (Beyotime)at room temperature for 30 min. After the blocking, the PVDF membranes were separately incubated at 4° C. overnight with the KRAS antibody (Abcam) diluted in a ratio of 1:1000 and the β-actin antibody (Abcam) diluted in a ratio of 1:2000 in 5% BSA as the diluent, and then washed with 1×TBST buffer (2.4 g of Tris, 8.8 g of NaCl, 1.5 mL of Tween 20, with pH adjusted to 7.4, with the volume brought to 1 L) 3 times for 10 min/time. The membranes were incubated with a secondary antibody (Abcam) diluted in 5% BSA at room temperature for 2 h, and then washed with 1×TBST buffer 3 times for 10 min/time. Finally, the membranes were incubated with Clarity Western ECL Substrate (BIO-RAD) for 5 min for luminescence and color development, and a ChemiScope 6200 Touch chemiluminescence imaging system (Clinx) was used for color development and protein mapping. Gray value analysis of the protein maps was performed using the chemiluminescence analysis software (Clinx). […]
# [3] = tested on: KRAS WT human gastric cancer cell MKN1; assay: 3D cell proliferation inhibition assay, MKN1; conditions: MKN-1, 168 h, 3D culture, 7 days, CTG
# Outline: as §1
# [4] = molecular target: T2, KRAS G12V protein in SW620 cells (Homo sapiens, UniProt P01116, G12V); assay: KRAS degradation assay (Western Blot) in SW620 cells; conditions: for DC50: 24 h; for Dmax: SW-620, 24 h
# T2 construct: endogenous in cells; host or cells: SW620
# T2 sequence (P01116 1-188 isoform P01116-2 G12V): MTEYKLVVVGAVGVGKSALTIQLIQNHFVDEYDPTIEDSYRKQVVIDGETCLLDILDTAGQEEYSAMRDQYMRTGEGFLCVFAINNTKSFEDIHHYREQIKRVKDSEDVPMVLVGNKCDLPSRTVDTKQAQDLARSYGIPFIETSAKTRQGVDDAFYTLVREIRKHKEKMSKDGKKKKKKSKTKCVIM
# Outline: (§5)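 Cells seeded at 5×10^5 cells/well, incubated overnight, then treated 24 h at 37 °C with compound (final 0.03–3000 nM, 0.25% DMSO). KRAS in lysates measured by Western blot with β-actin normalisation; degradation versus vehicle control fitted to give DC50 and Dmax.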
# [5] = molecular target: T3, KRAS G13D protein in DLD-1 cells (Homo sapiens, UniProt P01116, G13D); assay: KRAS degradation assay (Western Blot) in DLD-1 cells; conditions: 24 h
# T3 construct: endogenous in cells; host or cells: DLD-1
# T3 sequence (P01116 1-188 isoform P01116-2 G13D): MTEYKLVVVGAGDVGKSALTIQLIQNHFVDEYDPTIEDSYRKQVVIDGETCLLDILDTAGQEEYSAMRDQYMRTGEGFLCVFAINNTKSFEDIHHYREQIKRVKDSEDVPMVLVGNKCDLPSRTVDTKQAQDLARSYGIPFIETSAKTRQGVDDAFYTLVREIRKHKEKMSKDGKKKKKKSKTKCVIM
# Outline: as §5
# [6] = tested on: KRAS G12V mutant human colorectal cancer cell SW620; assay: 3D cell proliferation inhibition assay, SW620; conditions: SW-620, 168 h, 3D culture, 7 days, CTG
# Outline: as §1
# [7] = tested on: KRAS G12C mutant human non-small cell lung cancer cell NCI-H358; assay: 3D cell proliferation inhibition assay, NCI-H358; conditions: NCI-H358, 168 h, 3D culture, 7 days, CTG
# Outline: as §1
# [8] = molecular target: T4, KRAS G12C protein in NCI-H358 cells (Homo sapiens, UniProt P01116, G12C); assay: KRAS degradation assay (Western Blot) in NCI-H358 cells; conditions: 24 h
# T4 construct: endogenous in cells; host or cells: NCI-H358
# T4 sequence (P01116 1-188 isoform P01116-2 G12C): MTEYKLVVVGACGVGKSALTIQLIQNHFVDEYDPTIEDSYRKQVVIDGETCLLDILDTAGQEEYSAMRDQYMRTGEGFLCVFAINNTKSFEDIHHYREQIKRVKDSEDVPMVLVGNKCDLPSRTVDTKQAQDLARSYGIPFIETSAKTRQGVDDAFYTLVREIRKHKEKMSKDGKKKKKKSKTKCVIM
# Excerpt: as §2, §3, §4
# [9] = tested on: KRAS G12D mutant human metastatic pancreatic cancer cell AsPc-1; assay: 3D cell proliferation inhibition assay, AsPc-1; conditions: ASPC1, 168 h, 3D culture, 7 days, CTG
# Outline: as §1
# [10] = molecular target: T5, KRAS G12D protein in AsPc-1 cells (Homo sapiens, UniProt P01116, G12D); assay: KRAS degradation assay (Western Blot) in AsPc-1 cells; conditions: for DC50: 24 h; for Dmax: ASPC1, 24 h
# T5 construct: endogenous in cells; host or cells: AsPc-1
# T5 sequence (P01116 1-188 isoform P01116-2 G12D): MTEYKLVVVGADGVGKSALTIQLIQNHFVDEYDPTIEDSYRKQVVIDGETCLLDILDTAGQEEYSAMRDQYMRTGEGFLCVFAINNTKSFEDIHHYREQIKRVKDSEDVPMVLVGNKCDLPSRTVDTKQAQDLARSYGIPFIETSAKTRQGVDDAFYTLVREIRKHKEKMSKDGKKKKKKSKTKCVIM
# Excerpt: as §2, §3, §4
IC50 [1],DC50 [2],Dmax [2],IC50 [3],DC50 [4],Dmax [4],DC50 [5],Dmax [5],IC50 [6],IC50 [7],DC50 [8],Dmax [8],IC50 [9],DC50 [10],Dmax [10],SMILES
3.55 nM,0.28 nM,97.4%,2.33 nM,0.99 nM,100%,2.05 nM,100%,1.92 nM,2.33 nM,1.7 nM,88.9%,6.48 nM,18.7 nM,93.3%,"C#Cc1c(F)ccc2cc(O)cc(-c3ncc4c(N5CCC[C@@](C)(O)C5)nc(OC[C@H](C)CN5CCN(CC6CCC7(CC6)CCN(C(=O)c6ccc(C)c(N8CCC(=O)NC8=O)c6)CC7)CC5)nc4c3F)c12 [Example 47, 1-(5-(9-((4-((R)-3-((7-(8-ethynyl-7-fluoro-3-hydroxynaphthalen-1-yl)-8-fluoro-4-((R)-3-hydroxy-3-methylpiperidin-1-yl)pyrido[4,3-d]pyrimidin-2-yl)oxy)-2-methylpropyl)piperazin-1-yl)methyl)-3-azaspiro[5.5]undecane-3-carbonyl)-2-methylphenyl)dihydropyrimidine-2,4(1H,3H)-dione]"
8.33 nM,1.15 nM,98.9%,5.41 nM,5.16 nM,100%,8.8 nM,100%,1.92 nM,2.13 nM,6.04 nM,92.7%,4.26 nM,,,"C#Cc1c(F)ccc2cc(O)cc(-c3ncc4c(N5CCC[C@@](C)(O)C5)nc(OCC5(CN6CCN(CC7CCC8(CC7)CCN(C(=O)c7cc(N9CCC(=O)NC9=O)c(C)cc7F)CC8)CC6)CC5)nc4c3F)c12 [Example 91, (R)-1-(5-(9-((4-((1-(((7-(8-ethynyl-7-fluoro-3-hydroxynaphthalen-1-yl)-8-fluoro-4-(3-hydroxy-3-methylpiperidin-1-yl)pyrido[4,3-d]pyrimidin-2-yl)oxy)methyl)cyclopropyl)methyl)piperazin-1-yl)methyl)-3-azaspiro[5.5]undecane-3-carbonyl)-4-fluoro-2-methylphenyl)dihydropyrimidine-2,4(1H,3H)-dione]"
3.9 nM,1.25 nM,99.5%,22.6 nM,7.48 nM,99.5%,4.39 nM,100%,3.76 nM,4.66 nM,1.11 nM,98.2%,12.1 nM,5.91 nM,99.6%,"[2H]C([2H])([2H])Oc1ccc(C(=O)N2CCC3(CCC(CN4CCN(C[C@@H](C)COc5nc(N6CCC[C@@](C)(O)C6)c6cnc(-c7cc(O)cc8ccc(F)c(C#C)c78)c(F)c6n5)CC4)CC3)CC2)cc1N1CCC(=O)NC1=O [Example 164, 1-(5-(9-((4-((R)-3-((7-(8-ethynyl-7-fluoro-3-hydroxynaphthalen-1-yl)-8-fluoro-4-((R)-3-hydroxy-3-methylpiperidin-1-yl)pyrido[4,3-d]pyrimidin-2-yl)oxy)-2-methylpropyl)piperazin-1-yl)methyl)-3-azaspiro[5.5]undecane-3-carbonyl)-2-(methoxy-d3)phenyl)dihydropyrimidine-2,4(1H,3H)-dione]"
6.28 nM,0.76 nM,99.3%,6.7 nM,2.35 nM,97.7%,1.96 nM,99.9%,2.59 nM,2.49 nM,2.65 nM,96.1%,6.31 nM,5.53 nM,100%,"[2H]C([2H])([2H])Oc1ccc(C(=O)N2CCC3(CCC(CN4CCN(CC5(COc6nc(N7CCC[C@@](C)(O)C7)c7cnc(-c8cc(O)cc9ccc(F)c(C#C)c89)c(F)c7n6)CC5)CC4)CC3)CC2)cc1N1CCC(=O)NC1=O [Example 170, (R)-1-(5-(9-((4-((1-(((7-(8-ethynyl-7-fluoro-3-hydroxynaphthalen-1-yl)-8-fluoro-4-(3-hydroxy-3-methylpiperidin-1-yl)pyrido[4,3-d]pyrimidin-2-yl)oxy)methyl)cyclopropyl)methyl)piperazin-1-yl)methyl)-3-azaspiro[5.5]undecane-3-carbonyl)-2-(methoxy-d3)phenyl)dihydropyrimidine-2,4(1H,3H)-dione]"
